Read-outs that look alike come from different tables or passages of the source.
Tests used:
Format in all cases: cell-based
CXCR4 receptor = biological target: T1, CXCR4 receptor (Homo sapiens, UniProt P61073); experiment: Functional FLIPR assay (block of SDF-1 alpha induced [Ca2+]i change); settings: HEK-293 cells, human CXCR4 BacMam and Gqi5 BacMam, read-out: Functional assay (pIC50) (converted)
T1 construct: expressed in transfected cells; host or cells: HEK-293 cells (stably expressing human macrophage scavenger receptor) transduced with human CXCR4 BacMam and Gqi5 BacMam
Protocol: Human embryonic kidney (HEK-293) cells were maintained and harvested as described above. Cells were plated in 96-well, black clear bottom, poly-lysine coated plates at a concentration of 40,000 cells per well in a final volume of 100 ul containing human CXCR4BacMam (MOI=25) and Gqi5 BacMam (MOI=12.5). The cells were incubated at 37° C., 5% CO2, 95% humidity for 24 h to allow for protein expression.
After the required incubation time the cells were washed once with 50 ul of fresh serum-free DMEM/F12 media containing probenicid. 50 ul of dye solution was then added to the cells (Calcium Plus Assay Kit Dye; Molecular Devices) was dissolved in 200 ml of the above probenicid/BSA containing media and incubated for 1 h. Cell plates were transferred to a Fluorometric Imaging Plate Reader (FLIPR). Upon addition the effect of the compounds on the change in [Ca^2+]i was examined to determine if the compounds were agonists or antagonists (ability to block SDF-1 alpha activity) at the CXCR4 receptor. IC50 values are determined and pKb values are calculated using the Leff and Dougall equation: KB═IC50/((2+([agonist]/EC50̂b)̂1/b−1) Where IC50 is that defined by the antagonist concentration-response curve [agonist)] is the EC80 concentration of agonist used EC50 is that defined by the agonist concentration-response curve b is the slope of the agonist concentration-response curve.

[1] = system: HIV-1 gp160 (HXB2 strain) mediated cell/cell fusion; experiment: Cell/cell fusion assay (HOS hCXCR4/hCCR5/hCD4/pHIV-LTR-luciferase cells with HEK-293 cells expressing HIV-1 tat, rev, gp160), luciferase readout; settings: Homo sapiens, HEK293, 24 h, read-out: Fusion assay (pIC50) (converted)
Description: The complete coding sequences of HIV-1 tat (GenBank Accession No. X07861) and rev (GenBank Accession No. M34378) were cloned into pcDNA3.1 expression vectors containing G418 and hygromycin resistance genes, respectively. The complete coding sequence of the HIV-1 (HXB2 strain) gp160 envelope gene (nucleotide bases 6225-8795 of GenBank Accession No. K03455) was cloned into plasmid pCRII-TOPO. The three HIV genes were additionally inserted into the baculovirus shuttle vector, pFastBacMam1, under the transcriptional control of the CMV promoter. A construction of the pHIV-1 LTR containing mutated NFkB sequences linked to the luciferase reporter gene was prepared by digesting pcDNA3.1, containing the G418 resistance gene, with Nru I and Bam HI to remove the CMV promoter. LTR-luc was then cloned into the Nru I/Bam HI sites of the plasmid vector. Plasmid preparations were performed after the plasmids were amplified in Escherichia coli strain DH5-alpha. The fidelity of the inserted sequences was confirmed by double-strand nucleotide sequencing using an ABI Prism Model 377 automated sequencer.
Recombinant BacMam baculoviruses were constructed from pFastBacMam shuttle plasmids by using the bacterial cell-based Bac-to-Bac system. Viruses were propagated in Sf9 (Spodoptera frugiperda) cells cultured in Hink's TNM-FH Insect media supplemented with 10% (v/v) fetal bovine serum and 0.1% (v/v) pluronic F-68 according to established protocols.
Human osteosarcoma (HOS) cells that naturally express human CXCR4 were transfected with human CCR5, human CD4 and the pHIV-LTR-luciferase plasmid using FuGENE 6 transfection reagent. Single cells were isolated and grown under selection condition in order to generate a stable HOS (hCXCR4/hCCR5/hCD4/pHIV-LTR-luciferase) clonal cell line. The cells were maintained in Dulbeccos modified Eagles media supplemented with 10% fetal calf serum (FCS), G418 (400 ug/ml), puromycin (1 ug/ml), mycophenolic acid (40 ug/ml), xanthine (250 ug/ml) and hypoxanthine (13.5 ug/ml) to maintain a selection pressure for cells expressing the LTR-luciferase, hCCR5 and hCD4, respectively. Human embryonic kidney (HEK-293) cells stably transfected to express the human macrophage scavenging receptor (Class A, type 1; GenBank Accession No. D90187), were maintained in DMEM/F-12 media (1:1) supplemented with 10% FCS and 1.5 ug/ml puromycin. The expression of this receptor by the HEK-293 cells enhances their ability to stick to tissue culture treated plasticware.
HEK-293 cells were harvested using enzyme-free cell dissociation buffer. The cells were resuspended in DMEM/F-12 media supplemented with 10% FCS and 1.5 ug/ml and counted. Tranductions were performed by direct addition of BacMam baculovirus containing insect cell media to cells. The cells were simultaneously transduced with BacMam baculovirus expressing HIV-1 tat, HIV-1 rev and HIV-1 gp160 (from the HXB2 HIV strain). Routinely an MOI of 10 of each virus was added to the media containing the cells. 2 mM butyric acid was also added to the cells at this stage to increase protein expression in transduced cells. The cells were subsequently mixed and seeded into a flask at 30 million cells per T225. The cells were incubated at 37° C., 5% CO2, 95% humidity for 24 h to allow for protein expression.
HEK and HOS cells were harvested in DMEM/F-12 media containing 2% FCS and DMEM media containing 2% FCS, respectively, with no selection agents added. Compounds were plated as 1 ul spots in 100% DMSO on a 96-well CulturPlate plates. HOS cells (50 ul) were added first to the wells, followed immediately by the HEK cells (50 ul). The final concentration of each cell type was 20,000 cells per well. Following these additions, the cells were returned to a tissue culture incubator (37° C.; 5% CO2/95% air) for an additional 24 h.
Following the 24 h incubation, total cellular luciferase activity was measured using the LucLite Plus assay kit (Packard, Meridien, Conn.). […]

[2] = Compound cytotoxicity in HOS cells in the absence of virus (CellTiter-Glo); settings: human, no virus, read-out: Cytotox (pIC50) (converted)
Protocol: Compounds were profiled against two HIV-1 viruses, the M-tropic (CCR5 utilizing) Ba-L strain and the T-tropic (CXCR4 utilizing) IIIB strain. Both viruses were propagated in human peripheral blood lymphocytes. Compounds were tested for there ability to block infection of the HOS cell line (expressing hCXCR4/hCCR5/hCD4/pHIV-LTR-luciferase) by either HIV-1 Ba-L or HIV-1 IIIB. Compound cytotoxicity was also examined in the absence of virus addition.
HOS cells (expressing hCXCR4/hCCR5/hCD4/pHIV-LTR-luciferase) were harvested and diluted in Dulbeccos modified Eagles media supplemented with 2% FCS and non-essential amino acid to a concentration of 60,000 cells/ml. The cells were plated into 96-well plates (100 ul per well) and the plates were placed in a tissue culture incubator (37° C.; 5% CO2/95% air) for a period of 24 h.
Subsequently, 50 ul of the desired drug solution (4 times the final concentration) was added to each well and the plates were returned to the tissue culture incubator (37° C.; 5% CO2/95% air) for 1 h. Following this incubation 50 ul of diluted virus was added to each well (approximately 2 million RLU per well of virus). The plates were returned to the tissue culture incubator (37° C.; 5% CO2/95% air) and were incubated for a further 96 h.
Following this incubation the endpoint for the virally infected cultures was quantified following addition of Steady-Glo Luciferase assay system reagent (Promega, Madison, Wis.). Cell viability or non-infected cultures was measured using a CellTiter-Glo luminescent cell viability assay system (Promega, Madison, Wis.). All luminescent readouts are performed on a Topcount luminescence detector (Packard, Meridien, Conn.).

HIV-1 IIIB = experiment: HOS HIV-1 infectivity assay
Procedure, shortened: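 HOS cells expressing hCXCR4/hCCR5/hCD4 and an HIV-LTR-luciferase reporter, in DMEM with 2% FCS, were pre-treated with compound for 1 h, then infected with HIV-1 IIIB (~2 million RLU/well) for 96 h at 37° C. Infection was read by Steady-Glo luciferase; cytotoxicity in uninfected cultures by CellTiter-Glo.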

[3] = Human immunodeficiency virus 1, IIIB, as determined by the infectivity assay, strain not stated in Table 2, read-out: Activity Level
[4] = Human immunodeficiency virus 1, T-tropic (CXCR4 utilizing) IIIB strain, HOS cells, 96 h, read-out: HOS (3B)

T1 sequence (P61073 whole entry): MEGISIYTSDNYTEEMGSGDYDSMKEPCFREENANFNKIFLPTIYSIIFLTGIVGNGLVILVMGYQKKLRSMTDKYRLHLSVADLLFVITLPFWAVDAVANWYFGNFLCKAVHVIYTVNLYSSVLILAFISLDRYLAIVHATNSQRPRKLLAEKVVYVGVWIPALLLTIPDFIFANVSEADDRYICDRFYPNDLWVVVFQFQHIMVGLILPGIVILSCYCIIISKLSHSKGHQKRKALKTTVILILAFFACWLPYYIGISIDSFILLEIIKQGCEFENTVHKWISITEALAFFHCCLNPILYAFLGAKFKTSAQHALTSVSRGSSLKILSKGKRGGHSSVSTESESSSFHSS

Structure (SMILES)	IC50 (CXCR4 receptor)	IC50 [1]	IC50 at 96 h [2]	IC50 (HIV-1 IIIB; [3])	IC50 (HIV-1 IIIB; [4])	IC50 (HIV-1 IIIB; Human immunodeficiency virus 1, IIIB, HOS, 96 h, read-out: HOS (3B) (uM))	IC50 (HIV-1 IIIB; Human immunodeficiency virus 1, IIIB, read-out: Activity Level)
CN1CCC(Cn2c(CN(C)C3CCCc4cccnc43)nc3ccccc32)C1 (stereo not drawn) [Example 8d, N-Methyl-N-({1-[(1-methyl-3-pyrrolidinyl)methyl]-1H-benzimidazol-2-yl}methyl)-5,6,7,8-tetrahydro-8-quinolinamine]	74.1 nM	74.1 nM	> 100000 nM	< 0.1 µM	0.057 µM	–	–
CN1CCN(CCCn2c(CN(C)C3CCCc4cccnc43)nc3ccccc32)CC1 (stereo not drawn) [Example 9, N-Methyl-N-({1-[3-(4-methyl-1-piperazinyl)propyl]-1H-benzimidazol-2-yl}methyl)-5,6,7,8-tetrahydro-8-quinolinamine]	135 nM	166 nM	> 100000 nM	< 0.1 µM	0.093 µM	–	–
CN1CC(Cn2c(CN(C)C3CCCc4cccnc43)nc3ccccc32)C1 (stereo not drawn) [Example 10e, N-Methyl-N-({1-[(1-methyl-3-azetidinyl)methyl]-1H-benzimidazol-2-yl}methyl)-5,6,7,8-tetrahydro-8-quinolinamine]	117 nM	91.2 nM	> 100000 nM	< 0.1 µM	0.066 µM	–	–
CN1CCC(n2c(CN(C)C3CCCc4cccnc43)nc3ccccc32)CC1 (stereo not drawn) [Example 11i, N-Methyl-N-{[1-(1-methyl-4-piperidinyl)-1H-benzimidazol-2-yl]methyl}-5,6,7,8-tetrahydro-8-quinolinamine]	37.2 nM	79.4 nM	> 100000 nM	–	–	0.082 µM	< 0.1 µM
CN(Cc1nc2ccccc2n1Cc1ccc(CNCc2ccccn2)cc1)C1CCCc2cccnc21 (stereo not drawn) [Example 12, N-Methyl-N-({1-[(4-{[(2-pyridinylmethyl)amino]methyl}phenyl)methyl]-1H-benzimidazol-2-yl}methyl)-5,6,7,8-tetrahydro-8-quinolinamine]	224 nM	575 nM	> 100000 nM	0.1 to 0.5 µM	0.376 µM	–	–
CN(Cc1nc2ccccc2n1CCCCN)C1CCCc2cccnc21 (stereo not drawn) [Example 13, N-{[1-(4-Aminobutyl)-1H-benzimidazol-2-yl]methyl}-N-methyl-5,6,7,8-tetrahydro-8-quinolinamine]	302 nM	126 nM	> 100000 nM	0.1 to 0.5 µM	0.131 µM	–	–
CN(Cc1nc2ccccc2n1Cc1ccc(CN)cc1)C1CCCc2cccnc21 (stereo not drawn) [Example 14, N-[(1-{[4-(Aminomethyl)phenyl]methyl}-1H-benzimidazol-2-yl)methyl]-N-methyl-5,6,7,8-tetrahydro-8-quinolinamine]	282 nM	708 nM	> 100000 nM	0.5 to 10 µM	0.985 µM	–	–
CN(C)CCCn1c(CN(C)C2CCCc3cccnc32)nc2ccccc21 (stereo not drawn) [Example 15c, N-({1-[3-(Dimethylamino)propyl]-1H-benzimidazol-2-yl}methyl)-N-methyl-5,6,7,8-tetrahydro-8-quinolinamine]	17 nM	16.6 nM	> 100000 nM	< 0.1 µM	0.023 µM	–	–
CN(Cc1nc2ccccc2n1CCCNCc1ccccn1)C1CCCc2cccnc21 (stereo not drawn) [Example 16, N-Methyl-N-[(1-{3-[(2-pyridinylmethyl)amino]propyl}-1H-benzimidazol-2-yl)methyl]-5,6,7,8-tetrahydro-8-quinolinamine]	58.9 nM	148 nM	> 100000 nM	0.1 to 0.5 µM	0.121 µM	–	–
CN(C)CCCCCn1c(CN(C)C2CCCc3cccnc32)nc2ccccc21 (stereo not drawn) [Example 17, N-({1-[5-(Dimethylamino)pentyl]-1H-benzimidazol-2-yl}methyl)-N-methyl-5,6,7,8-tetrahydro-8-quinolinamine]	204 nM	324 nM	> 100000 nM	0.1 to 0.5 µM	0.251 µM	–	–
NCCCn1c(CNC2CCCc3cccnc32)nc2ccccc21 (stereo not drawn) [Example 19, N-{[1-(3-Aminopropyl)-1H-benzimidazol-2-yl]methyl}-5,6,7,8-tetrahydro-8-quinolinamine]	234 nM	513 nM	> 100000 nM	< 0.1 µM	0.09 µM	–	–
CCN(Cc1nc2ccccc2n1CCCN)C1CCCc2cccnc21 (stereo not drawn) [Example 20, N-{[1-(3-Aminopropyl)-1H-benzimidazol-2-yl]methyl}-N-ethyl-5,6,7,8-tetrahydro-8-quinolinamine]	28.2 nM	56.2 nM	> 100000 nM	< 0.1 µM	0.021 µM	–	–
